Entries after “also recorded” stand apart in the source; their conditions may differ.
Experiments:
[1] = tested on: mouse adipocytes (cell line 3T3-L1); assay: 2-deoxyglucose (2-DG) uptake, resorufin assay; assay type: cell-based
Protocol: Mouse adipocytes (cell line 3T3-L1) as well as mouse myotubes (cell line C2C12) were cultivated under standard conditions and treated either with regular cell culture medium or insulin for 4 hours. Afterwards, cells were exposed to a combination of 2-deoxyglucose (2-DG) and the respective sample, either N-MP, coffee beverage (content of NMP in the coffee beverage: 26.7 mg/L) or a combination of both, for 2 hours. Then, cells were harvested and the 2-DG uptake was analyzed photometrically using the resorufin assay (Yamamoto, N.; Sato, T.; Kawasaki, K.; Murosaki, S.; Yamamoto, Y. A nonradioisotope, enzymatic assay for 2-deoxyglucose uptake in L6 skeletal muscle cells cultured in a 96-well microplate. Analytical Biochemistry 2006, 351, 139-145).

[2] = tested on: mouse adipocytes (cell line 3T3-L1); assay: 2-deoxyglucose (2-DG) uptake, resorufin assay; assay type: cell-based; settings: for 2-DG uptake: first ten minutes after incubation, nearly independent of concentration
[3] = sample alone, no insulin cotreatment, compared to control cells

| Compound | 2-deoxyglucose uptake in adipocytes [1, 3] | 2-deoxyglucose uptake in adipocytes ([1]; in combination with insulin) | further results |
| --- | --- | --- | --- |
| Cc1ccc[n+](C)c1 [N-3-Methylpicolinium iodide] | substantial improvement | – | – |
| Cc1cc[n+](C)cc1 [N-4-Methylpicolinium] | substantial increase | substantial increase | 2-DG uptake ([1]; alone or in combination with insulin, independently from the concentration used (FIGS. 10 and 11)): higher than 100%; 2-DG uptake ([1]; in some cases (FIG. 11, concurrent use of insulin)): > 200% |
| CCCCCCCCCCCCCCCC[n+]1ccccc1 [N-cetylpyridinium iodide] | excellent effects | excellent effects | 2-DG uptake ([2]; alone (FIG. 16 left panel)): excellent results; 2-DG uptake ([2]; co-treatment with insulin (FIG. 16 right panel)): excellent results |
| CC[n+]1ccccc1 [N-ethylpyridinium iodide] | good results | – | – |
| C[n+]1ccccc1.[I-] [N-methylpyridinium iodide] | – | improved | – |
| N-methylpyridinium [N-MP] | increased; also recorded: best results and effects | significantly enhance the effect of insulin | effectiveness of insulin on 2-deoxyglucose uptake ([1]; FIG. 5, in combination with coffee beverage and insulin): greatly enhance the effectiveness of insulin; 2-deoxyglucose uptake in adipocytes ([1]; sample alone, no insulin cotreatment, compared to control cells, listed as N-Methylpyridinium): enhance the uptake of 2-deoxyglucose in mouse adipocytes similarly insulin; 2-DG uptake by mouse adipocytes ([2]; FIG. 2, in combination with insulin, treatment times 1 min and 10 min, compared with insulin alone): statistically higher extent than insulin alone |
